Experimental data taken from patent publication US10196363B2, “Dihydropyrimidin-2-one compounds and medical use thereof” (JAPAN TOBACCO INC., priority 2014, dated 2019).
Where two headings read alike, the source gives them in different places.

Assays:
[1] = biological target: T1, human RORγ (Homo sapiens, UniProt P51449); test: In vitro assay of inhibitory effect against RORγ transcriptional activity (GAL4-hRORγ LBD luciferase reporter gene assay in CHO cells); assay type: cell-based; conditions: for hRORγ luciferase activity, %-of-control: vehicle-control 0.2% DMSO alone = 100%
T1 construct: human RORγ, from Ser253 to Lys518; expressed in transfected cells; host or cells: CHO cells (Chinese hamster ovary), transient co-transfection with pG5-Luc
T1 sequence (P51449 253-518): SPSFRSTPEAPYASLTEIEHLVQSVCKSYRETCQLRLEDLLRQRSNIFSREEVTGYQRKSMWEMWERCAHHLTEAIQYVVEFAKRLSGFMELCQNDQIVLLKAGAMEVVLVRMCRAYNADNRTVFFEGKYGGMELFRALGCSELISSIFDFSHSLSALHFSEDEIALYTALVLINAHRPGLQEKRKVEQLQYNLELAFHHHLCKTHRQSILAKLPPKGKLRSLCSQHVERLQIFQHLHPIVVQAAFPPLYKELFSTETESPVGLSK
Method in brief: (§1)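 GAL4-DBD fused to RORγ LBD (human Ser253–Lys518; mouse Ile251–Lys516) was transiently co-transfected with GAL4-driven pG5-Luc firefly luciferase into CHO cells. Cells were treated with 8 concentrations of compound (0.2% DMSO) for 2 days at 37 °C, then luminescence was read. EC50 was fitted from %-of-vehicle control.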

[2] = biological target: T2, mouse RORγ (Mus musculus, UniProt P51450); test: In vitro assay of inhibitory effect against RORγ transcriptional activity (GAL4-mRORγ LBD luciferase reporter gene assay in CHO cells); assay type: cell-based; conditions: for mRORγ luciferase activity, %-of-control: vehicle-control 0.2% DMSO alone = 100%
T2 construct: mouse RORγ, from Ile251 to Lys516; expressed in transfected cells; host or cells: CHO cells (Chinese hamster ovary), transient co-transfection with pG5-Luc
T2 sequence (P51450 251-516): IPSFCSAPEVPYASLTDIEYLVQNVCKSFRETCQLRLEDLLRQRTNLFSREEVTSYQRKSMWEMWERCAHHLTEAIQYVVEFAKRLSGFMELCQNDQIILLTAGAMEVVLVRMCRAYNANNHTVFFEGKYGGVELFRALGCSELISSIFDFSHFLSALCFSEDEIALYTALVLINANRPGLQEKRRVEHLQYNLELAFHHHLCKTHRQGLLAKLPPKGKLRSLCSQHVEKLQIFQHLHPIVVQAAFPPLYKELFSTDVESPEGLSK
Method in brief: as §1

[3] = GAL4-hRORγ LBD luciferase reporter, CHO cells, read-out: LUC EC50 hRORγ
[4] = GAL4-mRORγ LBD luciferase reporter, CHO cells, read-out: LUC EC50 mRORγ
[5] = GAL4-hRORγ LBD / pG5-Luc in CHO cells, 2 days incubation
[6] = GAL4-mRORγ LBD / pG5-Luc in CHO cells, 2 days incubation
[7] = value in parentheses beside the > EC50 bound
[8] = value in parentheses beside the EC50 bound

EC50 [1, 3] | EC50 [2, 4] | EC50 [1, 5] | EC50 [2, 6] | SMILES | also measured
20 nM | 15 nM | – | – | CC(C)C1=CN([C@H](C)CC(=O)O)C(=O)N[C@@]1(C)c1ccc(CCC(C)(C)C)c(Cl)c1 [Example 236] | –
– | – | 58 nM | 40 nM | CC(C)C1=CN(CCC(=O)O)C(=O)N[C@@]1(C)c1ccc(C2CC2C(C)(C)C)c(Cl)c1 (single isomer, unassigned) [Example 170] | –
63 nM | 45 nM | – | – | CC(C)CCOc1ccc([C@]2(C)NC(=O)N(C34CC(C(=O)O)(C3)C4)C=C2C2CC(F)(F)C2)cc1Cl [Example 349] | –
78 nM | 58 nM | – | – | CC(C)C1=CN(C2CCCC2C(=O)O)C(=O)N[C@@]1(C)c1ccc(CCC(C)(C)C)c(Cl)c1 (single isomer, unassigned) [Example 242] | –
3720 nM | 4530 nM | – | – | COCCN1C=C(c2cnn(C(C)(C)C(=O)O)c2)[C@](C)(c2ccc(CCC(C)(C)C)c(Cl)c2)NC1=O [Example 296] | –
13 nM | 12 nM | – | – | COCCC1=CN(C23CCC(C(=O)O)(C2)C3)C(=O)N[C@@]1(C)c1ccc([C@H]2C[C@@H](C(C)(C)C)C2)c(Cl)c1 (single isomer, unassigned) [Example 344] | –
– | – | 16 nM | 18 nM | CC(C)C1=CN([C@H]2CC[C@H](C(=O)O)CC2)C(=O)N[C@@]1(C)c1ccc(CCC(C)(C)C)c(Cl)c1 [Example 79] | –
– | – | 59 nM | 30 nM | CC(C)C1=CN(CCC(=O)O)C(=O)N[C@@]1(C)c1ccc(COC(C)(C)C)c(Cl)c1 [Example 147] | –
18 nM | 16 nM | – | – | CC(C)C1=CN([C@@H](C)CC(=O)O)C(=O)N[C@@]1(C)c1ccc(CCC(C)(C)C)c(Cl)c1 [Example 247] | –
59 nM | 45 nM | – | – | CC(C)(C)COc1ccc([C@]2(C)NC(=O)N(c3ccc(C(=O)O)cc3)C=C2C2CC(F)(F)C2)cc1Cl [Example 353] | –
52 nM | 26 nM | – | – | CC(C)C1=CN(CCC(=O)O)C(=O)N[C@@]1(C)c1ccc(CCC(C)(C)C)c(C(F)(F)F)c1 [Example 270] | –
– | – | 14 nM | 29 nM | CC(C)C1=CN(CCC(=O)O)C(=O)NC1(C)c1ccc(C2CCCC(C)(C)C2)c(Cl)c1 (single isomer, unassigned) [Example 166] | –
– | – | 60 nM | 47 nM | CC(C)C1=CN([C@H]2CC[C@@H](C(=O)O)CC2)C(=O)NC1(C)c1ccc(CCC(C)(C)C)c(Cl)c1 (mixture of isomers) [Example 30] | –
– | – | > 20000 nM | 13100 nM | CC(C)(C)COc1ccc(C2NC(=O)NC=C2C(C)(C)C(=O)O)cc1Cl (racemic) [Example 2] | hRORγ luciferase activity, %-of-control [1, 7]: (55%)
> 8000 nM | > 8000 nM | – | – | COc1cc([C@@]2(C)NC(=O)N(CCC(=O)O)C=C2C(C)C)ccc1CCC(C)(C)C [Example 212] | hRORγ luciferase activity, %-of-control [1, 8]: (68%); mRORγ luciferase activity, %-of-control [2, 8]: (81%)
21 nM | 40 nM | – | – | CC(C)C1=CN(c2ccc(F)c(C(=O)O)c2)C(=O)N[C@@]1(C)c1ccc(CCC(C)(C)C)c(Cl)c1 [Example 208] | –
– | – | 88 nM | 60 nM | CC(C)(C)COc1ccc(C2NC(=O)N(CCCC(=O)O)C=C2C(C)(C)C)cc1Cl (racemic) [Example 1] | –
18 nM | 28 nM | – | – | CC(C)C1=CN(c2ccc(C(=O)O)c(C(F)(F)F)c2)C(=O)N[C@@]1(C)c1ccc(CCC(C)(C)C)c(Cl)c1 [Example 283] | –
60 nM | 48 nM | – | – | CC1(C)CC=C(c2ccc([C@]3(C)NC(=O)N(CCC(=O)O)C=C3C3CC3)cc2Cl)CC1 [Example 321] | –
4560 nM | 3060 nM | – | – | CC(=O)N1CC(C(=O)O)C(N2C=C(C(C)C)[C@](C)(c3ccc(CCC(C)(C)C)c(Cl)c3)NC2=O)C1 (single isomer, unassigned) [Example 239] | –
15 nM | 14 nM | – | – | CC(C)C1=CN(CCC(=O)O)C(=O)N[C@@]1(C)c1ccc(CC2CCCCC2)c(Cl)c1 [Example 268] | –
– | – | > 8000 nM | > 8000 nM | CC(C)C1=CN(CCC(=O)O)C(=O)N[C@]1(C)c1ccc(C2CCCCC2)c(Cl)c1 [Example 135] | hRORγ luciferase activity, %-of-control [1, 7]: (90%); mRORγ luciferase activity, %-of-control [2, 7]: (84%)

EC50 [1, 3] | EC50 [2, 4] | EC50 [1, 5] | EC50 [2, 6] | SMILES | also measured
– | – | 21 nM | 24 nM | CC(C)C1=CN(CC(C)(C)CC(=O)O)C(=O)N[C@@]1(C)c1ccc(CCC(C)(C)C)c(Cl)c1 [Example 36] | –
63 nM | 51 nM | – | – | COCC(C)C1=CN(C23CCC(C(=O)O)(C2)C3)C(=O)N[C@@]1(C)c1ccc(CCC(C)(C)C)c(Cl)c1 (single isomer, unassigned) [Example 352] | –
– | – | 362 nM | 137 nM | CC(C)C1=CN([C@H]2C[C@@H](C(=O)O)C2)C(=O)NC1(C)c1ccc(OCC(C)(C)C)c(Cl)c1 (mixture of isomers) [Example 16] | –
27 nM | 10 nM | – | – | CC(C)C1=CN(CCC(=O)O)C(=O)N[C@@]1(C)c1ccc(CCC2(F)CCCC2)c(Cl)c1 [Example 301] | –
176 nM | 269 nM | – | – | CCOC(=O)C1CNCC1N1C=C(C(C)C)[C@](C)(c2ccc(CCC(C)(C)C)c(Cl)c2)NC1=O (single isomer, unassigned) [Example 244] | –
– | – | > 8000 nM | > 8000 nM | CC(C)(C)CCc1ccc(C2NC(=O)N([C@H]3C[C@H](C(=O)O)C3)C=C2C(C)(C)C)cc1Cl (single isomer, unassigned) [Example 102] | hRORγ luciferase activity, %-of-control [1, 7]: (76%); mRORγ luciferase activity, %-of-control [2, 7]: (76%)
134 nM | 366 nM | – | – | CC(C)C1=CN(c2cc(C(=O)O)on2)C(=O)N[C@@]1(C)c1ccc(CCC(C)(C)C)c(Cl)c1 [Example 295] | –
– | – | 15 nM | 24 nM | CC(C)C1=CN(C23CC(C(=O)O)(C2)C3)C(=O)N[C@@]1(C)c1ccc(CCC(C)(C)C)c(Cl)c1 [Example 77] | –
– | – | 27 nM | 17 nM | CC(C)C1=CN(CCC(=O)O)C(=O)N[C@@]1(C)c1cc(F)c(OCCC(C)(C)C)c(Cl)c1 [Example 165] | –
89 nM | 73 nM | – | – | C=C(C)C1=CN(CCC(=O)O)C(=O)N[C@@]1(C)c1ccc(CCC(C)(C)C)c(Cl)c1 [Example 292] | –
– | – | 34 nM | 24 nM | CC(C)(C)COc1ccc(C2NC(=O)N(CCCC(=O)O)C=C2C(C)(C)C)cc1Cl (single isomer, unassigned) [Example 5, 4-{5-tert-butyl-4-[3-chloro-4-(2,2-dimethylpropoxy)-phenyl]-2-oxo-3,4-dihydro-2H-pyrimidin-1-yl}-butanoic Acid] | –
– | – | 3610 nM | 2680 nM | CC(C)C1=CN([C@H]2CC[C@@H](C(=O)O)CC2)C(=O)N[C@]1(C)c1ccc(CCC(C)(C)C)c(Cl)c1 [Example 66] | –
14 nM | 17 nM | – | – | CC(C)C1=CN(Cc2ccc(C(=O)O)cc2)C(=O)N[C@@]1(C)c1ccc(CCC(C)(C)C)c(Cl)c1 [Example 204] | –
– | – | 443 nM | 422 nM | CC(C)C1=CN(CC[C@@H](O)C(=O)O)C(=O)N[C@]1(C)c1ccc(CCC(C)(C)C)c(Cl)c1 [Example 88] | –
9 nM | 18 nM | – | – | CC(C)(C)CCc1ccc([C@]2(C)NC(=O)N(C3CC(F)(F)C3)C=C2[C@H]2C[C@@H](C(=O)O)C2)cc1Cl [Example 229] | –
38 nM | 19 nM | – | – | CC(C)(C)CCc1ccc([C@]2(C)NC(=O)N(CCC(=O)O)C=C2C2CC(F)(F)C2)cc1C(F)(F)F [Example 343] | –
12 nM | 13 nM | – | – | COCCC1=CN(c2ccc(C(=O)O)cc2)C(=O)N[C@@]1(C)c1ccc(C2=CCC(C)(C)CC2)c(Cl)c1 [Example 332] | –
13 nM | 23 nM | – | – | CO[C@H]1C[C@H](N2C=C(C(C)(C)CCC(=O)O)[C@](C)(c3ccc(CCC(C)(C)C)c(Cl)c3)NC2=O)C1 [Example 197] | –
– | – | > 8000 nM | > 8000 nM | CC(C)C1=CN(CCC(=O)O)C(=O)N[C@]1(C)c1ccc(CCC2CCCCC2)c(Cl)c1 [Example 138] | hRORγ luciferase activity, %-of-control [1, 7]: (85%); mRORγ luciferase activity, %-of-control [2, 7]: (96%)
12 nM | 17 nM | – | – | Cc1cc(N2C=C(C(C)C)[C@](C)(c3ccc(CCC(C)(C)C)c(Cl)c3)NC2=O)ccc1C(=O)O [Example 266] | –
22 nM | 14 nM | – | – | COCCC1=CN(c2ccc(C(=O)O)c(OC)c2)C(=O)N[C@@]1(C)c1ccc(CC2CCCCC2)c(Cl)c1 [Example 337] | –
38 nM | 32 nM | – | – | CC(C)C1=CN(C23CCC(C(=O)O)(C2)C3)C(=O)N[C@@]1(C)c1ccc(CCC(C)(C)C)c(C(F)(F)F)c1 [Example 314] | –
